Entries after “also recorded” stand apart in the source; their conditions may differ.
Assays:
[1] = test system: Dermal Papilla (DP) cells; assay: Stem Cell Proliferation Assay using dermal papilla; type: cell-based; conditions: Purmorphamine 1 μM; for Alkaline Phosphatase (Alp) colonies: Example 4, FIG. 4
Experimental: Dermal Papilla (DP) proliferation cell culture assay refers to a cell culture method to quantify the number of Dermal Papilla (DP) spheroids, size of DP spheroids, or number of DP cells in cell culture, which is measured at the end of the assay. DP cells refer to cells that express Alkaline Phosphatase (AP), and/or Versican, and/or Vimentin, and/or Sox2, and/or CD133.
The protocol for the Stem Cell Proliferation Assay using dermal papilla is as follows:
Basal media: DMEM/high-glucose medium and F12, supplemented with N2 1×, B27 1×, Streptomycin sulfate (100 μg/ml), Amphotericin B ([…]), and 1 mM Hepes.
Microdissection is used to remove intact hair follicles from a specimen. Intact follicles are incubated for 40 min at 37° C. in TrypLE™ (Thermo Fisher Scientific) with 1 mg/ml collagenase type 1 (sterilized using 0.2 μm syringe filter). The treated follicles are then triturated >30× using a 200 μl pipette tip. The volume is adjusted up to 1 ml with 1×PBS. The treated follicles are then passed through a 40 μm cell strainer to obtain a single cell suspension.
Twenty μl are applied to a cell counter to determine the number of cells per 1 ml. The remaining cell suspension is spun down at 1,000×g for 5 min at 4° C.
Standard media is prepared supplemented with growth factors (IGF, EGF, and FGF2 at 50 ng/ml). The cells are suspended in standard media with growth factors at 120,000 cells/ml and 250 μl (30,000 cells) are applied to each well of a 24-well plate (Corning Costar, 3534).
Each treatment condition is prepared at 2× concentration, enough for 250 μl/well for a final dilution of 1× in 500 μl. The final DMSO concentration is at about 0.2% for all.
250 μl 2× treatment media is applied to each well to have a final media volume per well of 500 μl. The final treatment concentration per well is 1×. The final cell density is 30,000 cells per well. […]
EVOS® transmitted light images are taken at 0, 5, 7, and 10 days in culture.
Spheroids are collected at 10 days in culture for immunoblotting, qPCR, or flow cytometry. Alternatively, spheroids may be applied to glass bottom dishes coated with poly-1-lysine for alkaline phosphatase (AP) staining, 5-ethynyl-2′-deoxyuridine (EdU) staining, and/or immunofluorescence for DP markers (e.g. Vimentin, Sox2, Versican, CD133) for microscopy.
Alternatively, cells or colonies may be assessed using microscopy to compare DP properties across conditions.

[2] = target: GSK3-alpha (Homo sapiens, UniProt P49840); conditions: cited from earlier work
[3] = target: GSK3-beta (Homo sapiens, UniProt P49841); conditions: cited from earlier work
[4] = Example 1, FIG. 1, 8 days in culture, CHIR99021 4 μM, alone or combined
[5] = Example 2, FIG. 2, 10 days in culture, Compound I-7 10 nM, alone or combined
[6] = Example 3, FIG. 3, SAG 3 nM, SAG HCl 500 nM, alone or with Compound I-7 10 nM
[7] = 10 days in culture, Compound I-7 10 nM, alone or combined

Sequence of GSK3-alpha (P49840 whole entry, species assumed): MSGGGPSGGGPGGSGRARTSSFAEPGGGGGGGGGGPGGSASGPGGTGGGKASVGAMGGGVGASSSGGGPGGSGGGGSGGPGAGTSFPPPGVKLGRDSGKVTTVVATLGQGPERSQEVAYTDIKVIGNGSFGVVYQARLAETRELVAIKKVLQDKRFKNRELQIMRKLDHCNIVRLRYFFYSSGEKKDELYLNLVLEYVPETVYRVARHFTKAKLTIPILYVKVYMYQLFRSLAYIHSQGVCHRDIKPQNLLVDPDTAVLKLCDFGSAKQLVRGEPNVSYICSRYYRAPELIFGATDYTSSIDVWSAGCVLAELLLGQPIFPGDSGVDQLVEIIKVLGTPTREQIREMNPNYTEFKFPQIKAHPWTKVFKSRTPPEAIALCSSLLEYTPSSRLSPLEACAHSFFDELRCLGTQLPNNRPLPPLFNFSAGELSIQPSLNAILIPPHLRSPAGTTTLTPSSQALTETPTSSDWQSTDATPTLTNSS
Sequence of GSK3-beta (P49841 whole entry, species assumed): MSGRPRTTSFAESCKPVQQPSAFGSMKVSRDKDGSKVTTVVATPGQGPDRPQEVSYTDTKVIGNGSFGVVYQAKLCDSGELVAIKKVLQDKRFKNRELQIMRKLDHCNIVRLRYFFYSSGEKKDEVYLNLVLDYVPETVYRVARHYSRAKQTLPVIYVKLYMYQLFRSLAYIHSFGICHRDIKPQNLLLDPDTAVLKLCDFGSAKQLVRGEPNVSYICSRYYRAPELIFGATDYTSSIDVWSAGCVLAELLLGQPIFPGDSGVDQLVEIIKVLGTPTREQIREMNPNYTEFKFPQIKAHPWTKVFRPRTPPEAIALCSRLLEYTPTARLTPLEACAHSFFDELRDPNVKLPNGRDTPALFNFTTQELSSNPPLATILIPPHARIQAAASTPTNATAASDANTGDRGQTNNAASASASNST

Cc1c[nH]c(-c2cnc(NCCNc3ccc(C#N)cn3)nc2-c2ccc(Cl)cc2Cl)n1 [CHIR99021]
DP colonies by light microscopy [1, 4]: more abundant colonies than FIG. 1A; also recorded: more abundant colonies than DP cells treated in control conditions

c1ccc2c(Oc3nc(Nc4ccc(N5CCOCC5)cc4)c4ncn(C5CCCCC5)c4n3)cccc2c1 [Purmorphamine]
DP colonies by light microscopy [1, 4]: slightly larger and more abundant colonies than FIG. 1A; also recorded: slightly larger and more abundant colonies than DP cells treated in control conditions
DP colonies by light microscopy [1, 5]: slightly larger and more abundant colonies than FIG. 2A; also recorded: slightly larger and more abundant colonies than DP cells treated in control conditions
DP colonies by light microscopy [1, 6]: form colonies
Alkaline Phosphatase (Alp) colonies [1, 7]: few Alp colonies

N#Cc1ccc2[nH]c(O)c(-c3ccc(CN4CCOCC4)cn3)c2c1 [AZD1080]
Potency in nM GSK3-alpha [2]: 6.9 nM

COc1ccccc1[C@@H]1C2=C(CC(C)(C)CC2=O)Nc2n[nH]c(C(F)(F)F)c21 [BRD1172]
Potency in nM GSK3-beta [3]: 10 nM
Potency in nM GSK3-alpha [2]: 3 nM

Cc1ccc(C(=O)Nc2c[nH]nc2C(=O)NCCCOC(C)C)cn1 [GSK-3b XXII]
Potency in nM GSK3-alpha [2]: 2.3 nM

O=C1NC(=O)C(c2cnc3ccccn23)=C1c1cn2c3c(cc(F)cc13)CN(C(=O)N1CCC(F)(F)CC1)CC2 [Compound I-7, 3-(2-(4,4-difluoropiperidine-1-carbonyl)-9-fluoro-1,2,3,4-tetrahydro-[1,4]diazepino[6,7,1-hi]indol-7-yl)-4-(imidazo[1,2-a]pyridin-3-yl)-1H-pyrrole-2,5-dione]
DP colonies by light microscopy [1, 5]: more abundant colonies than FIG. 2A; also recorded: more abundant colonies than DP cells treated in control conditions
Alkaline Phosphatase (Alp) colonies [1, 7]: small Alp colonies; also recorded: few Alp colonies

CNC1CCC(N(Cc2cccc(-c3ccncc3)c2)C(=O)c2sc3ccccc3c2Cl)CC1 (centres unmarked) [SAG]
DP colonies by light microscopy [1, 6]: form colonies

CC1(C)CC(=O)C2=C(C1)Nc1n[nH]c(C(F)(F)F)c1[C@]2(C)c1ccccc1 [BRD1652]
Potency in nM GSK3-beta [3]: 4 nM
Potency in nM GSK3-alpha [2]: 0.4 nM
